In article PMC9351465, “Mechanism-based heparanase inhibitors reduce cancer metastasis in vivo” (Proceedings of the National Academy of Sciences of the …, 2022):
“And” between values parts separate entries of the source, which are not always exact repeats. Equal values may be shown once.

Legend:
[1] = molecular target: T1, HPSE (Homo sapiens, UniProt Q9Y251); assay: competitive activity-based protein profiling (cABPP) with ABP 7, recombinant HPSE; settings: recombinant HPSE 20 nM, 1 h preincubation at 37°C, then 100 nM ABP 7, pH 5.5
T1 sequence (Q9Y251 158-543 limits assumed): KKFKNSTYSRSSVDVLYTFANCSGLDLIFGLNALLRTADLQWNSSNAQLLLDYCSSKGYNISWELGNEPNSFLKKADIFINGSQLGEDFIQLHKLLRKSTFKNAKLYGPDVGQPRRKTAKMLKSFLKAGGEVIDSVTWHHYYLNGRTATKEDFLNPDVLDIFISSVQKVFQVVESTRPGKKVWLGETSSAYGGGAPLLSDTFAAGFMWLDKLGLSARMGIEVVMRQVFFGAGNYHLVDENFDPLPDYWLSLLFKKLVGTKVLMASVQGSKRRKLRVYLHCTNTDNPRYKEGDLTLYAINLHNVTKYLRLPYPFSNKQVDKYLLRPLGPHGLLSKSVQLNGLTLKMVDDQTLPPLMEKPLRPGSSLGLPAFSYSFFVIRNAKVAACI
T1 sequence (Q9Y251 36-109 limits assumed): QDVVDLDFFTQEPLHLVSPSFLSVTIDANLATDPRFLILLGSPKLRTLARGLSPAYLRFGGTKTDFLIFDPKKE

[2] = molecular target: T1, HPSE; assay: colorimetric fondaparinux cleavage assay; format: biochemical; settings: 200 ng/mL HPSE, 100 µM fondaparinux, pH 5.0, 37°C, 18 h, n = 2; read-out: IC50, HPSE-mediated fondaparinux cleavage
Description: We next investigated the ability of our inhibitors to abrogate HPSE processing of its native oligosaccharide substrates, using a colorimetric assay that detects cleavage of the synthetic HS pentasaccharide fondaparinux ([49]). […]
Fondaparinux cleavage was performed essentially as previously described (9). Briefly, assays were carried out in 96 well plates (Nunc) pretreated with 4% BSA in TBS-T (20 mM Tris pH 7.4, […]
100 µL reactions were set up in 40 mM NaOAc pH 5.0 buffer, containing final concentrations of 200 ng/mL HPSE, 100 µM Fondaparinux (Arixtra) and specified concentrations of inhibitors.
Reactions were incubated at 37°C for 18 h, then quenched with 100 µL 0.1 M NaOH supplemented with 1.7 mM WST-1 tetrazolium salt, and incubated at 60°C for 1 h. Absorbance at 584 nm was read using an ELISA plate reader (BIO-TEK Instruments). All reactions were carried out in technical duplicate. Data were plotted and analyzed using Sigmaplot (Systat). […]

[3] = molecular target: T1, HPSE; assay: H35SPG basement membrane (ECM) digest by recombinant HPSE; format: biochemical
Description: Finally, we assessed our inhibitors against HPSE-mediated degradation of bona fide HSPGs in an ECM environment. Cultured bovine corneal endothelial cells secrete a subendothelial basement membrane material rich in proteoglycans, which can be radiolabeled by growth in the presence of ^35SO4^2− ([50]). Solubilized H^35S chains released from H^35SPGs by HPSE digestion can be resolved chromatographically, with HPSE inhibition leading to a corresponding loss of signal. […] We also tested inhibition of endogenous cellular HPSE using this assay format. […]
ECM coated 35 mm culture dishes containing 35S labelled HS were prepared as previously described (10). Briefly, bovine corneal endothelial cells were plated at an initial density of 2x10^5 cells/ml, with 4% dextran T-40 (Sigma) included in the growth medium. Na235SO4 (25 µCi/ml) was added to the incubation medium on days 2 and 5 after seeding. On day 12, subendothelial ECM is exposed by dissolving the cells with PBS containing 0.5% Triton X-100 and 20 mM NH4OH, followed by four washes with PBS.
For HS-degradation assays, ECM coated dishes were incubated with 200 ng recombinant HPSE in 1 mL reaction mixture (10 mM buffer Phosphate-Citrate pH 6.0, 50 mM NaCl, 1 mM DTT, 1 mM CaCl2) containing HPSE inhibitors or DMSO control. Plates were incubated at 37°C for 5 h, then assay medium collected and applied to a 0.9×30 cm Sepharose 6B size exclusion column. The Sepharose 6B column was eluted with PBS, and 35S radioactivity of 0.2 mL fractions quantitated using a liquid scintillation analyzer (Packard BioScience) (11). […]
Matrigel and […]
non-migrating cells in the upper side of the Boyden filter were removed by swabbing, then invading cells on the bottom side of the transwell filter imaged for analysis. […]
B16 melanoma - Twenty minutes before tumor cell inoculation, C57BL/J6 mice (n=5) were injected intraperitoneally with vehicle alone (PBS), compound 2 (300 nmol/mouse), or SST0001 (150 µg/mouse). Mice were subsequently intravenously inoculated with 1.5x105

[4] = molecular target: T2, human platelet HPSE (Homo sapiens, UniProt Q9Y251); assay: cABPP of human platelet lysates, HPSE band
T2 sequence (Q9Y251 158-543 limits assumed): T1 sequence (Q9Y251 158-543 limits assumed)
T2 sequence (Q9Y251 36-109 limits assumed): T1 sequence (Q9Y251 36-109 limits assumed)

HPSE inhibition (cABPP) [1]: nanomolar HPSE inhibition potencies
IC50 [2]: 460 nM and ~460 nM
inhibition of recombinant HPSE-mediated H35SPG cleavage ([3]; 200 ng HPSE, pH 6.0, 37°C, 5 h): robust, dose-dependent inhibition
level of inhibition of H35SPG cleavage relative to 4.6 μM 10 ([3]; 1 μM 2 or 3 compared to 4.6 μM 10): comparable levels of inhibition
IC50 ([4]; HPSE IC50, human platelet lysates, cABPP, n = 3): ~530 nM and 530 nM
Compound: CC(=O)N[C@H]1[C@@H](O[C@H]2[C@H](O)[C@@H](O)[C@@H]3O[C@@H]3[C@@H]2C(=O)O)O[C@H](CO)[C@@H](O)[C@@H]1O [compound 2]
selectivity of HPSE inhibition in platelet lysates ([4]; human platelet lysates containing both HPSE and GUSB): highly selective inhibition of human platelet HPSE
